According to PMC8040415, “Para-chloro-2-[^18F]fluoroethyl-etomidate: A promising new PET radiotracer for adrenocortical imaging” (International Journal of Medical Sciences, 2021):
“And” between values parts separate entries of the source, which are not always exact repeats. Equal entries are not always repeated. “Also recorded” adds a separate entry of the source.

What was measured:
NHP adrenal gland tissue = experiment: Competition binding assay against 10 nM [^18F]CETO; design: species or system cynomolgus monkey (non-human primate; details: residual binding of 10 nM [^18F]CETO, NHP adrenal gland tissue 200 µg/mL, 60 min, room temperature
Procedure: (§1) Normal NHP adrenal tissue was weighed and homogenized in 20 volumes of ice-cold 0.32 M sucrose and stored in aliquots at -80 °C until use. For the saturation binding study, the homogenate was further diluted to 20 µg/mL in the assay. Triplicates of each ligand concentration in the range of 0.03-30 nmol/L [^18F]CETO, with and without a competing ligand (1 µmol/L metomidate), were incubated at room temperature for 60 min. For the competition binding assay, 200 µg/mL of NHP adrenal gland tissue was used. Triplicate tubes, containing 10 nM [^18F]CETO were incubated for 60 min at room temperature with three competing ligands, MTO, FETO and CETO, at concentrations between 0 and 30 nmol/L, respectively.
(§2) The incubations were terminated by filtration under vacuum through Whatman GF/C glass fibre filters, using a cell harvester (Brandel, Gaithersburg, MD). The filters were washed four times with 3 mL PBS buffer and transferred to scintillation tubes where the trapped radioactivity was measured in an automated gamma counter (Wizard 2480, PerkinElmer Downers Grove, IL, USA).
(§3) The saturation study was repeated twice with normal NHP adrenal gland tissue and the results were used to calculate the equilibrium dissociation constant, Kd, and the total target density for the binding of [^18F]CETO, Bmax. Values for IC50, Bmax and Kd were estimated by GraphPad Prism 8.2, using non-linear regression of the binding curves.

[1] = PET/CT in non-human primate with kinetic modelling; type: in vivo, Macaca fascicularis; details: for time of peak uptake in the adrenal glands: SUVmean time-activity curves
Procedure: One female NHP, Macaca fascicularis, was obtained from the Astrid Fagræus Laboratory, Karolinska Institute, Comparative Medicine. The NHP was used to compare the [^18F]CETO and [^11C]MTO biodistribution and their uptake over time in adrenal and liver.
Ketamine (~10 mg/kg) was used as a sedative. Whilst being transported to the PET centre at Uppsala University Hospital, the NPH was weighed and maintained on iterated ketamine injections (15 mg/kg/h). Saturation levels were continuously measured through pulse oximetry, and oxygen administered as needed.
At the PET centre, the NPH was intubated under propofol-induced anaesthesia. General anaesthesia was maintained by sevoflurane inhalation (1.5 - 5.0%) and artificial ventilation. Two venous catheters were placed - one for blood sampling and one for tracer administration. Body temperature, heart rate, ECG, pCO2, pO2, SaO2 and blood pressure levels were monitored throughout the PET study. A General Electric Discovery MI PET/CT scanner (GE Healthcare, Milwaukee, USA) was used.
PET/CT positioning was determined by using a scout CT scan, and 6.5 MBq/kg of [^11C]MTO was administered I.V. through the catheter. A baseline dynamic 90 min PET scan over the abdomen was started. After a sufficient waiting period, to allow for the radioactive decay of carbon-11, 4.2 MBq/kg of [^18F]CETO was injected I.V. A 90 min baseline dynamic PET scan was started and was followed by a 15 min whole-body PET examination. Thereafter, a blockage study was performed by administering 0.5 mg/kg etomidate I.V. for 20 min. At the end of etomidate administration, corresponding to approximately 150 min after the baseline [^18F]CETO injection, 19.3 MB/kg of [^18F]CETO was administered I.V., followed by a 90 min dynamic PET scan. The amount of radioactivity used in the blocking study was nearly fivefold that used during the baseline PET examination, in order to render any remaining activity from the baseline scan negligible. During both [^18F]CETO PET scans, discrete venous blood samples (~2 mL) were collected in heparinized tubes at 5, 10, 20, 40 and 80 min p.i. (3 mL at the last time point) of [^18F]CETO to measure radioactivity in whole blood and in plasma and for metabolite analysis. PET images were reconstructed using an ordered-subsets maximisation (OSEM) algorithm including time-of-flight information and resolution recovery. Dynamic images were reconstructed into time frames with increasing durations.
In the PET images, volumes of interest (VOIs) were drawn over representative subsets of aorta, adrenals, kidneys, liver, lungs, pancreas and spleen and transferred to all dynamic time frames to obtain time-activity curves (TACs), showing SUV as a function of time, after normalization to injected activity per body weight. Plasma TACs were determined by multiplying the aorta TAC with the mean plasma-to-whole blood ratio of the five analysed blood samples. Then, a metabolite-corrected input curve, representing intact tracer in plasma, was calculated by multiplying the plasma TAC with a sigmoid fit to the measured parent fraction data.
Adrenal time-activity curves were fitted using single-tissue as well as irreversible and reversible two-tissue compartment models. The optimal model to describe the data was determined using the Akaike information criterion. In addition, data were analysed using the Patlak and Logan graphical analysis methods, assuming irreversible and reversible kinetics, respectively. Additionally, whole-body net uptake rate parametric images were calculated using the Patlak method.

[2] = Radio metabolite analysis of [^18F]CETO in NHP plasma; type: in vivo, Macaca fascicularis; details: for intact [^18F]CETO: NHP venous plasma
[3] = system: CYP11B1 and CYP11B2 in NHP adrenal gland homogenate; experiment: Saturation binding of [^18F]CETO in adrenal gland homogenate; design: species or system cynomolgus monkey (non-human primate; details: saturation study
Procedure: as §1, §2, §3

[4] = Ex-vivo organ distribution in rats; design: species or system Sprague Dawley rats
Procedure: A biodistribution study for [^18F]CETO was performed in thirty Sprague Dawley rats. A dose of 5.4±0.9 MBq [^18F]CETO was injected as a bolus in the lateral tail vein, to un-sedated rats. Three rats of each gender were then euthanized by high concentrations of CO2, at five predetermined time points; 10, 30, 60, 120 and 240 min post injection (p.i.), respectively, and their organs were harvested and weighed. Radioactivity content in the organs was measured in a well-type NaI(Tl) scintillation counter, applying correction for dead-time and for decay. The organ radioactivity readings were decay-corrected to the time of injection, and results were expressed as standardized uptake values (SUV).

[5] = system: human adrenal tumours and normal adrenal gland; experiment: Frozen section autoradiography; type: binding; details: 0.03 nmol/L [^18F]CETO, 60 min
Procedure: Tissues from normal human adrenal glands, liver, kidney, spleen and small intestine were used along with samples of different types of adrenal tumours, aldosterone-producing adenomas (APA), cortisol-producing adenomas (CPA), ACC, and pheochromocytoma (PCC). Normal adrenal gland tissues and spleen tissues from non-human primates (NHPs) were also utilized.
Specimens for autoradiography were prepared from snap-frozen tissue, stored at -70 °C, and divided by a cryotome into 20 μm thick slices. The slices were placed on Superfrost^TM glass slides and stored at -20 °C until the autoradiographic examination. Slides were pre-incubated at room temperature for 20 min in a PBS buffer. Duplicate slides were incubated in 0.03 nmol/L [^18F]CETO for 60 min, in the presence or absence of an excess of metomidate (0.45 µmol/L) to block the specific binding of [^18F]CETO. After incubation, slides were washed for 3 × 3 min in cold PBS buffer, followed by rapid immersion in water. Slides were then dried for 10 min at 37 °C and exposed to Super Resolution Storage Phosphor Screens (PerkinElmer, Downers Grove, IL, USA) for >240 min and scanned in a Cyclone Plus Phosphor Imager (PerkinElmer, Model C431200, Downers Grove, IL, USA).

[6] = system: normal NHP adrenal tissue; experiment: In vitro association/dissociation kinetics (LigandTracer); design: species or system cynomolgus monkey (non-human primate; details: 1:1 kinetic binding model, NHP adrenal homogenate
Procedure: To determine the in vitro kinetics for association and dissociation of [^18F]CETO to normal NHP adrenal tissue, 20 µL of homogenate, corresponding to 40 µg of adrenal, was pipetted to a Poly-D-lysine coated cell dish (CELLCOAT™, Greiner Bio-One GmbH, Austria) and allowed to dry for 15 min. Subsequently, the dishes were placed in the inclined rotating holder of a LigandTracer™ yellow instrument (Ridgeview Instruments AB, Uppsala, Sweden) and [^18F]CETO was added with concentrations ranging from 1 to 5 nM to measure the association rate. A higher concentration was added when the previous concentration had reached equilibrium. To measure the dissociation rate, the radioactive solution was replaced with buffer after the highest concentration reached equilibrium. Data were analyzed with TraceDrawer software (Ridgeview Instruments AB, Uppsala, Sweden) and the association rate constant (kon), dissociation rate constant (koff) and equilibrium dissociation constant (KD) were computed using a 1:1 kinetic binding model.

[7] = Observation of adverse effects after tracer injection, rats; details: rats following [^18F]CETO injection
[8] = Observation of adverse effects after tracer injection, NHP; type: in vivo, Macaca fascicularis; details: recovery post-anaesthesia
Description: After the imaging sessions, the NHP was wakened and de-intubated and, once stable, transported back to its living facility.

[9] = PET-MRI in rats with and without metomidate blocking; type: in vivo, Sprague Dawley rats
Description: Sevoflurane inhalation was used for the induction and maintenance of anaesthesia, and an intravenous catheter was placed in the lateral tail vein. After the investigations, the mice/rats were euthanized and their organs harvested and weighed, followed by measurement of radioactivity (as previously described). PET and MRI images were acquired on a Nanoscan PET-3TMRI scanner (Mediso Mediso, Medical Imaging Systems, Budapest, Hungary).
Two male Sprague Dawley rats were positioned on the heated bed of the scanner and a dynamic PET acquisition of the abdomen was initiated immediately before injection of 4-5 MBq of [^18F]CETO. Metomidate (1 µmol/kg) was co-injected in one of the rats as a blocker. The dynamic PET scan was continued for 60 min and was followed by a whole-body static scan, 3 beds, 5 min per bed position ~90 min post injection, and by MRI of the abdomen.
PET acquisition was initiated and 4.0-4.8 MBq of […] was intravenously administered. One of the rats was given metomidate (1 µmol/kg) I.V., for a blockage study. An initial dynamic PET scan of the abdomen was performed for 60 min, followed by a baseline whole body PET scan for 15 min.

C[C@H](c1ccc(Cl)cc1)n1cncc1C(=O)OCCF [CETO]
IC50 (NHP adrenal gland tissue): 5 nM

C[C@H](c1ccccc1)n1cncc1C(=O)OCCF [FETO]
IC50 (NHP adrenal gland tissue): 3 nM

COC(=O)c1cncn1C(C)c1ccccc1 (centres unmarked) [MTO, metomidate]
IC50 (NHP adrenal gland tissue): 2 nM

C[C@H](c1ccccc1)n1cncc1C(=O)O[11CH3] [[^11C]MTO, [^11C]Metomidate, reference compound]
highest adrenal-to-liver ratio ([1]; NHP, 40 minutes p.i.): 1.5
time of peak uptake in the adrenal glands ([1]; NHP): approximately 40 min p.i.

C[C@H](c1ccc(Cl)cc1)n1cncc1C(=O)OCC[18F] [[^18F]CETO, para-chloro-2-[^18F]fluoroethyl-etomidate]
intact [^18F]CETO ([2]; 5 min p.i.): 56%
intact [^18F]CETO ([2]; 80 min p.i.): 11%
[^18F]CETO share of radioactivity in plasma ([2]; NHP, final observation time point 90 min p.i.): approximately 10%
half-life ([2]; female, cynomolgus monkey, plasma, intravenous, NHP, bi-phasic metabolism, read-out: plasma half-life, fast first phase): ~10 min
Bmax [3]: 0.0082 to 0.0097 nmol/mg
Kd ([3]; room temperature, 60 min, read-out: equilibrium dissociation constant, Kd): 0.66 nM and 0.66 to 0.67 nM and 0.67 nM
Bmax ([3]; separate experiments A and B): 0.0097 nmol/mg and 0.0082 nmol/mg
time of peak uptake in the adrenal glands ([4]; ex-vivo biodistribution): 2 hr p.i.
uptake in all other organs and tissues (SUV) ([4]; other than adrenal glands and early lungs and pancreas, bone and urinary bladder are exceptions): ~1 SUV
uptake in APAs compared to that of the normal adrenal gland [5]: approximately threefold
koff [6]: 0.00035 s⁻¹
Kd ([6]; read-out: Kd value derived from the rate constants): 0.59 nM
highest adrenal-to-liver ratio ([1]; NHP, 85 min p.i.): > 5
time of peak uptake in the adrenal glands ([1]; NHP): > 85 min p.i.
rate constant k3 in the adrenal glands after blocking ([1]; NHP, after etomidate 0.5 mg/kg, irreversible two-tissue compartment model): reduced to zero
route of elimination ([1]; NHPs): mainly renal
adverse effects [7]: No adverse effects
adverse effects [8]: no adverse effects
route of elimination [9]: mainly renal
time of peak adrenal uptake [9]: 120 min p.i.

C[C@H](c1ccccc1)n1cncc1C(=O)OCC[18F] [[^18F]FETO, 2-[^18F]fluoroethyl-etomidate]
blocking of adrenal uptake with metomidate ([9]; metomidate 1 µmol/kg): unable to block; also recorded: not possible to block
